{
  "source": "ChEMBL document CHEMBL5321200",
  "about": "“Discovery of the GSH responsive \"Y-PROTACs\" targeting ALK and CDK4/6 as a potential treatment for cancer” (Eur J Med Chem, 2023)",
  "key": {"[1]": {"target": "T1, Protein cereblon/ALK tyrosine kinase receptor/Echinoderm microtubule-associated protein-like 4 (Homo sapiens) (UniProt Q9UM73+Q9HC35+Q96SW2)", "T1 sequence (Q96SW2 whole entry partner)": "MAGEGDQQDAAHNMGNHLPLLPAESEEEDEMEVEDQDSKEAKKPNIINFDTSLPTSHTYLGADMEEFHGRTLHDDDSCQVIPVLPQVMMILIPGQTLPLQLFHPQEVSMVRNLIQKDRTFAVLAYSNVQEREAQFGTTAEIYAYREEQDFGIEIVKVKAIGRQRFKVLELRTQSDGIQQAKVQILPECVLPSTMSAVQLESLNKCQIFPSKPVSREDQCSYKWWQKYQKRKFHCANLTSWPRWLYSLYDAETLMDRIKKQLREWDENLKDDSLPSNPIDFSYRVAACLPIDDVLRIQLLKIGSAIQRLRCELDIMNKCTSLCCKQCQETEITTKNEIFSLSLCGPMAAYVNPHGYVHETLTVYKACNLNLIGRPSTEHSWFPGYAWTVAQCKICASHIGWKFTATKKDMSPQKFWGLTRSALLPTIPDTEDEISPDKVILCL", "T1 sequence (Q9HC35 whole entry partner)": "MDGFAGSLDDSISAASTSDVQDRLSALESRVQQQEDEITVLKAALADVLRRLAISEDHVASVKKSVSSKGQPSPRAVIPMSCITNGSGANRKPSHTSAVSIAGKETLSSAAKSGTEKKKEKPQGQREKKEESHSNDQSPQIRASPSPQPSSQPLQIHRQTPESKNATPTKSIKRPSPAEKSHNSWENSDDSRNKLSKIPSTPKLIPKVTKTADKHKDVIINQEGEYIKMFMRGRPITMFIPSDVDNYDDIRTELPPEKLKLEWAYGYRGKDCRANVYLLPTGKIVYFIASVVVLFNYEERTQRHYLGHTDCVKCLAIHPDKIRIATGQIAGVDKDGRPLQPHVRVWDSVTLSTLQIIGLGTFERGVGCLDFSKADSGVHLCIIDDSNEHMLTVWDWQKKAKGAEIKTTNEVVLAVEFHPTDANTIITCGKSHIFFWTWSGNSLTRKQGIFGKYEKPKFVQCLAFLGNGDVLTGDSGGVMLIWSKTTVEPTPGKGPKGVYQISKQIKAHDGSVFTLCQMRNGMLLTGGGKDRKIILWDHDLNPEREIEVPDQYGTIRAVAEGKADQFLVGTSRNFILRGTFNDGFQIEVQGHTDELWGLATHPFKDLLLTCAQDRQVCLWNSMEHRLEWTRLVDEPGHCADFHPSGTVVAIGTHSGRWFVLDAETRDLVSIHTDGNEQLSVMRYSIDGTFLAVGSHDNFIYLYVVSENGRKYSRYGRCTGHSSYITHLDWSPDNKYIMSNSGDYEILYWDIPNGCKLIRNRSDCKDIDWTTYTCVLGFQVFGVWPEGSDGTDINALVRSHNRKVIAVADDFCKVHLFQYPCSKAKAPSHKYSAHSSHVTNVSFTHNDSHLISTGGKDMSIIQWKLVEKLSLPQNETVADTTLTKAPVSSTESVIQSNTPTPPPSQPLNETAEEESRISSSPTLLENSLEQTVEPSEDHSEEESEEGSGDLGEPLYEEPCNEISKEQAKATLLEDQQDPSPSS", "T1 sequence (Q9UM73 19-1620 limits assumed)": "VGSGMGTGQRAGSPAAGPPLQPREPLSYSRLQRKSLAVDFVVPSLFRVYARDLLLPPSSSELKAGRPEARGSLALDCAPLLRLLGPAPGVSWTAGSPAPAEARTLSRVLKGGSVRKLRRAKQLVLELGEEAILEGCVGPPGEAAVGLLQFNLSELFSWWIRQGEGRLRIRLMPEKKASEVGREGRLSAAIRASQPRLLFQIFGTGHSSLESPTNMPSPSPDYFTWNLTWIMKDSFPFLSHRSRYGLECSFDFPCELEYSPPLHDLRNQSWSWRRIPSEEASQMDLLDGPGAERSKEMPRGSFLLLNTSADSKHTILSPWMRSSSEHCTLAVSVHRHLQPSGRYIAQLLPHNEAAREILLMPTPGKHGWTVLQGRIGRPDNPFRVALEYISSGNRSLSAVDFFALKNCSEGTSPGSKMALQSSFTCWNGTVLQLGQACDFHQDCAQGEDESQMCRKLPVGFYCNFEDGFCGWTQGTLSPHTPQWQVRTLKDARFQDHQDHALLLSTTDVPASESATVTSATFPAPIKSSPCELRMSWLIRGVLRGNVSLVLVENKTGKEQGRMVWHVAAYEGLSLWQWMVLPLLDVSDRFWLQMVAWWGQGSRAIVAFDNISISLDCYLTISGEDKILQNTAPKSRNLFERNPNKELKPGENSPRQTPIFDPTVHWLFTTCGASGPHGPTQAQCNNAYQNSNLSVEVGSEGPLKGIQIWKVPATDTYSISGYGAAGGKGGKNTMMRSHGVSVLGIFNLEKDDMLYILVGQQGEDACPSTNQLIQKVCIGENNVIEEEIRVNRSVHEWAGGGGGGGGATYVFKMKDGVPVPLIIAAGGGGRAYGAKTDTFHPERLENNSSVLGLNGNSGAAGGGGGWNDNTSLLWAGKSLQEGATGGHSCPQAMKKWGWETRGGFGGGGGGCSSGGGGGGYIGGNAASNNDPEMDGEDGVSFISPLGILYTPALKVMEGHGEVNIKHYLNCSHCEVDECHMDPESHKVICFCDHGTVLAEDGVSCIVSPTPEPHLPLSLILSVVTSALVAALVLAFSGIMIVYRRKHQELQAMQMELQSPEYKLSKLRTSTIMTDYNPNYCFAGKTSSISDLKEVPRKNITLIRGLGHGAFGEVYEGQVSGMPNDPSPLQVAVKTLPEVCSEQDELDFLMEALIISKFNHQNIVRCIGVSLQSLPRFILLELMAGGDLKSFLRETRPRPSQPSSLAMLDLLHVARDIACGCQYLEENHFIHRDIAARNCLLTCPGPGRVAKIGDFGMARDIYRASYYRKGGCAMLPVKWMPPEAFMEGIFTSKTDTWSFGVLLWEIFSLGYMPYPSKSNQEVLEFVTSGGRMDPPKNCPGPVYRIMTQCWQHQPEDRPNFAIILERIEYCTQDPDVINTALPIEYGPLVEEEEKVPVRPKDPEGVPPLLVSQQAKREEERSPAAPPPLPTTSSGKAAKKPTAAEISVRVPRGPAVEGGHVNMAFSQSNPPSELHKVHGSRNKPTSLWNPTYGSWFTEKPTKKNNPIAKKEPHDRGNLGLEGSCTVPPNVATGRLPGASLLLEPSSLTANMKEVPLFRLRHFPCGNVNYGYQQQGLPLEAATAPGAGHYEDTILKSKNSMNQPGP", "test": "PROTAC activity at CRBN/EML4-ALK in human L02 cells assessed as reduction in ALK protein level at 1 to 20 uM incubated for 24 hrs by Western blot analysis", "format": "cell-based", "details": "dose 1-20 µM"}, "NCI-H3122 [2]": {"system": "NCI-H3122", "test": "Cell cycle arrest in human NCI-H3122 cells assessed as accumulation of cells at G0/G1 phase at 0.625 uM incubated for 24 hrs by propidium iodide staining based flow cytometric analysis (reference value: 48.68%)", "format": "functional"}, "[3]": {"target": "T1, Protein cereblon/ALK tyrosine kinase receptor/Echinoderm microtubule-associated protein-like 4 (Homo sapiens)", "test": "PROTAC activity at CRBN/EML4-ALK in human L02 cells assessed as reduction in ALK protein level at 1 to 20 uM incubated for 24 hrs in presence of GSH by Western blot analysis", "format": "cell-based", "details": "dose 1-20 µM"}, "NCI-H3122 [4]": {"system": "NCI-H3122", "test": "Induction of apoptosis in human NCI-H3122 cells assessed as late apoptotic cells at 1.25 uM incubated for 48 hrs by Annexin V-FITC/propidium iodide staining based flow cytometric analysis (reference value: 3.06%)", "format": "functional"}, "NCI-H3122 [5]": {"system": "NCI-H3122", "test": "Antiproliferative activity against human NCI-H3122 cells assessed as inhibition of cell growth incubated for 3 to 5 days by MTT assay", "format": "functional, cell-based"}, "NCI-H3122 [6]": {"system": "NCI-H3122", "test": "Induction of apoptosis in human NCI-H3122 cells assessed as early apoptotic cells at 1.25 uM incubated for 48 hrs by Annexin V-FITC/propidium iodide staining based flow cytometric analysis (reference value: 0.71%)", "format": "functional"}, "[7]": {"test": "Cytotoxicity against human L02 cells assessed as inhibition of cell growth incubated for 3 to 5 days by MTT assay", "format": "toxicity, cell-based"}, "[8]": {"test": "Toxicity in BALB/c nude mouse xenografted with human NCI-H3122 cells assessed as reduction in body weight at 25 to 75 mg/kg, IG administered once daily for 18 days", "format": "organism-based", "details": "in vivo, po, 432 h, dose 25-75 mg/kg, time 18 day"}, "[9]": {"target": "Cyclin-dependent kinase 4 (Homo sapiens) (UniProt P11802)", "sequence (P11802 whole entry)": "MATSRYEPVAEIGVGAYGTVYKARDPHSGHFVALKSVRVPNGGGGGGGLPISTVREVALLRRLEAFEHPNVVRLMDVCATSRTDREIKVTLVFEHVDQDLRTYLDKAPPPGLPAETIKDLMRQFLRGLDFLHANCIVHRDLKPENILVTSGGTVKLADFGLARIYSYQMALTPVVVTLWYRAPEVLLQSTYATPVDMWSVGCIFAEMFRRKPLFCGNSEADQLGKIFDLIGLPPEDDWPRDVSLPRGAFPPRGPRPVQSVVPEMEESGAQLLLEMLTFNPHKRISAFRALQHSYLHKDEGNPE", "test": "Inhibition of CDK4 (unknown origin) at 0.05 uM by LANCE Ultra TR-FRET assay relative to control"}, "[10]": {"test": "Toxicity in BALB/c nude mouse xenografted with human NCI-H3122 cells assessed as effect on heart function at 75 mg/kg, IG administered once daily for 18 days and measured after 12 hrs of last dose by H and E staining based assay", "format": "organism-based", "details": "in vivo, po, 444 h"}, "[11]": {"target": "ALK tyrosine kinase receptor (Homo sapiens) (UniProt Q9UM73)", "sequence (Q9UM73 19-1620 limits assumed)": "as the sequence (Q9UM73 19-1620 limits assumed) above", "test": "Inhibition of ALK (unknown origin) at 0.05 uM by LANCE Ultra TR-FRET assay relative to control"}, "NCI-H3122 [12]": {"system": "NCI-H3122", "test": "Cell cycle arrest in human NCI-H3122 cells assessed as accumulation of cells at S phase at 2.5 uM incubated for 24 hrs by propidium iodide staining based flow cytometric analysis (reference value: 29.94%)", "format": "functional"}, "[13]": {"target": "T1, Protein cereblon/ALK tyrosine kinase receptor/Echinoderm microtubule-associated protein-like 4 (Homo sapiens)", "test": "PROTAC activity at CRBN/EML4-ALK in human NCI-H3122 cells assessed as reduction in EML4-ALK fusion protein level at 10 uM incubated for 24 hrs by Western blot analysis", "format": "cell-based"}, "NCI-H3122 [14]": {"system": "NCI-H3122", "test": "Induction of apoptosis in human NCI-H3122 cells assessed as late apoptotic cells at 0.625 uM incubated for 48 hrs by Annexin V-FITC/propidium iodide staining based flow cytometric analysis (reference value: 3.06%)", "format": "functional"}, "NCI-H3122 [15]": {"system": "NCI-H3122", "test": "Induction of apoptosis in human NCI-H3122 cells assessed as necrotic cells at 1.25 uM incubated for 48 hrs by Annexin V-FITC/propidium iodide staining based flow cytometric analysis (reference value: 0.57%)", "format": "functional"}, "[16]": {"target": "T2, Protein cereblon/Cyclin-dependent kinase 4 (Homo sapiens, UniProt P11802+Q96SW2)", "T2 sequence (P11802 2-303 limits assumed)": "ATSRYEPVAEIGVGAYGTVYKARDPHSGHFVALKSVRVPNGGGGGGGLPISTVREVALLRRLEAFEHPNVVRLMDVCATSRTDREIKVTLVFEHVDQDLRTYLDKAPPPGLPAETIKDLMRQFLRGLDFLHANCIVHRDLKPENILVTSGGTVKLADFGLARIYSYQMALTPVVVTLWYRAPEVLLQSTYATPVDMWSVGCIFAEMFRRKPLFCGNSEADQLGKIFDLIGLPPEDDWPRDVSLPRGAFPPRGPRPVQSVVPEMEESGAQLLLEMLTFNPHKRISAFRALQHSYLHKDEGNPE", "T2 sequence (Q96SW2 whole entry partner)": "as the sequence (Q96SW2 whole entry partner) above", "test": "PROTAC activity at CRBN/CDK4 in human NCI-H3122 cells assessed as degradation of CDK4 protein at 5 uM pretreated with palbociclib for 4 hrs followed by compound addition and measured after 24 hrs by Western blot analysis", "format": "cell-based"}, "[17]": {"test": "Toxicity in BALB/c nude mouse xenografted with human NCI-H3122 cells assessed as effect on visceral kidney morphology at 75 mg/kg, IG administered once daily for 18 days and measured after 12 hrs of last dose by H and E staining based analysis", "format": "organism-based", "details": "in vivo, po, 444 h"}, "NCI-H3122 [18]": {"system": "NCI-H3122", "test": "Antitumor activity against human NCI-H3122 cells xenografted in BALB/c nude mouse assessed as reduction in tumor weight at 75 mg/kg, IG administered once daily for 18 days and measured after 12 hrs of last dose", "format": "functional, organism-based", "details": "time 444.0 hrs"}, "[19]": {"target": "T2, Protein cereblon/Cyclin-dependent kinase 4", "test": "PROTAC activity at CRBN/CDK4 in human L02 cells assessed as reduction in CDK4 protein level at 1 to 20 uM incubated for 24 hrs by Western blot analysis", "format": "cell-based", "details": "dose 1-20 µM"}, "NCI-H3122 [20]": {"system": "NCI-H3122", "test": "Induction of apoptosis in human NCI-H3122 cells assessed as viable cells at 0.312 uM incubated for 48 hrs by Annexin V-FITC/propidium iodide staining based flow cytometric analysis (reference value: 95.66%)", "format": "functional", "details": "read-out: Activity"}, "NCI-H3122 [21]": {"system": "NCI-H3122", "test": "Induction of apoptosis in human NCI-H3122 cells assessed as necrotic cells at 0.312 uM incubated for 48 hrs by Annexin V-FITC/propidium iodide staining based flow cytometric analysis (reference value: 0.57%)", "format": "functional"}, "[22]": {"target": "T2, Protein cereblon/Cyclin-dependent kinase 4", "test": "PROTAC activity at CRBN/CDK4 in human NCI-H3122 cells assessed as induction of CDK4 degradation at 5 uM pretreated with pomalidomide for 4 hrs followed compound addition and measured after 24 hrs by Western blot analysis", "format": "cell-based"}, "[23]": {"target": "Protein cereblon/ALK tyrosine kinase receptor (Homo sapiens) (UniProt Q9UM73+Q96SW2)", "sequence (Q96SW2 whole entry partner)": "as above", "sequence (Q9UM73 19-1620 limits assumed)": "as the sequence (Q9UM73 19-1620 limits assumed) above", "test": "PROTAC activity at CRBN/ALK in human NCI-H3122 cells assessed as degradation of ALK protein at 5 uM pretreated with ceritinib for 4 hrs followed by compound addition and measured after 24 hrs by Western blot analysis", "format": "cell-based"}, "NCI-H3122 [24]": {"system": "NCI-H3122", "test": "Induction of apoptosis in human NCI-H3122 cells assessed as early apoptotic cells at 0.312 uM incubated for 48 hrs by Annexin V-FITC/propidium iodide staining based flow cytometric analysis (reference value: 0.71%)", "format": "functional"}, "[25]": {"target": "T1, Protein cereblon/ALK tyrosine kinase receptor/Echinoderm microtubule-associated protein-like 4 (Homo sapiens)", "test": "PROTAC activity at CRBN/EML4-ALK in human NCI-H3122 cells assessed as induction of EML4-ALK fusion protein degradation at 5 uM measured at 16 to 48 hrs by Western blot analysis", "format": "cell-based", "details": "time 16-48 hrs"}, "[26]": {"target": "T1, Protein cereblon/ALK tyrosine kinase receptor/Echinoderm microtubule-associated protein-like 4 (Homo sapiens)", "test": "PROTAC activity at CRBN/EML4-ALK in human NCI-H2228 cells assessed as reduction in EML4-ALK fusion protein level incubated for 24 hrs by Western blot analysis", "format": "cell-based"}, "[27]": {"target": "Protein cereblon/ALK tyrosine kinase receptor/Echinoderm microtubule-associated protein-like 4 (Homo sapiens, UniProt Q96SW2+Q9HC35+Q9UM73)", "test": "PROTAC activity at CRBN/EML4-ALK in human NCI-H3122 cells assessed as reduction in EML4-ALK fusion protein level incubated for 24 hrs by Western blot analysis", "format": "cell-based"}, "[28]": {"target": "T1, Protein cereblon/ALK tyrosine kinase receptor/Echinoderm microtubule-associated protein-like 4 (Homo sapiens)", "test": "PROTAC activity at CRBN/EML4-ALK in human NCI-H3122 cells assessed as reduction in EML4-ALK fusion protein level at 0.1 to 20 uM incubated for 24 hrs in presence of GSH by Western blot analysis", "format": "cell-based", "details": "dose 0.1-20 µM"}},
  "note": "Calls of active or inactive are those of the source. The rule behind the calls is not given here.",
  "data": [
    {"smiles": "CC(=O)c1c(C)c2cnc(Nc3ccc(N4CCN(CC(=O)NCCSSCCN(CC(=O)NCCNc5cccc6c5C(=O)N(C5CCC(=O)NC5=O)C6=O)C(=O)CCCCCCC(=O)N5CCC(c6cc(OC(C)C)c(Nc7ncc(Cl)c(Nc8ccccc8S(=O)(=O)C(C)C)n7)cc6C)CC5)CC4)cn3)nc2n(C2CCCC2)c1=O", "note": "(stereo not drawn)", "values": [
      {"measurement": "Activity", "setting": "[1]", "result": "Active"},
      {"measurement": "Activity", "setting": "NCI-H3122 [2]", "result": 68.5, "unit": "%"},
      {"measurement": "Activity", "setting": "[3]", "result": "Active"},
      {"measurement": "Activity", "setting": "NCI-H3122 [4]", "result": 10.54, "unit": "%"},
      {"measurement": "IC50", "setting": "NCI-H3122 [5]", "result": 0.14, "unit": "µM"},
      {"measurement": "Activity", "setting": "NCI-H3122 [6]", "result": 1.03, "unit": "%"},
      {"measurement": "IC50", "setting": "[7]", "result": 55.3, "unit": "µM"},
      {"measurement": "Activity", "setting": "[8]", "result": "Non-Toxic"},
      {"measurement": "inhibition", "setting": "[9]", "result": 54.9, "unit": "%"},
      {"measurement": "Activity", "setting": "[10]", "result": "Non-Toxic"},
      {"measurement": "inhibition", "setting": "[11]", "result": 68.3, "unit": "%"},
      {"measurement": "Activity", "setting": "NCI-H3122 [12]", "result": 6.04, "unit": "%"},
      {"measurement": "Activity", "setting": "[13]", "result": "Active"},
      {"measurement": "Activity", "setting": "NCI-H3122 [14]", "result": 8.32, "unit": "%"},
      {"measurement": "Activity", "setting": "NCI-H3122 [15]", "result": 1.91, "unit": "%"},
      {"measurement": "Activity", "setting": "[16]", "result": "inactive"},
      {"measurement": "Activity", "setting": "[17]", "result": "Non-Toxic"},
      {"measurement": "Activity", "setting": "NCI-H3122 [18]", "result": "Active"},
      {"measurement": "Activity", "setting": "[19]", "result": "inactive"},
      {"measurement": "viability at 0.312 µM", "setting": "NCI-H3122 [20]", "result": 91.5, "unit": "%"},
      {"measurement": "Activity", "setting": "NCI-H3122 [21]", "result": 0.6, "unit": "%"},
      {"measurement": "Activity", "setting": "[22]", "result": "inactive"},
      {"measurement": "Activity", "setting": "[23]", "result": "inactive"},
      {"measurement": "Activity", "setting": "NCI-H3122 [24]", "result": 1.92, "unit": "%"},
      {"measurement": "Activity", "setting": "[25]", "result": "Active"},
      {"measurement": "Activity", "setting": "[26]", "result": "Active"},
      {"measurement": "EC50", "setting": "[27]", "result": 2.83, "unit": "µM"},
      {"measurement": "Activity", "setting": "[28]", "result": "Active"}
    ]}
  ]
}
